Results reported in patent US20110176998A1, “IMAGING AND THERAPY OF VIRUS-ASSOCIATED TUMORS” (THE JOHNS HOPKINS UNIVERSITY, priority 2007, published 2011).
“Also recorded” adds a separate entry of the source. Read-outs that look alike come from different tables or passages of the source.

Legend:
Zta promoter = format: cell-based, Epstein-Barr virus; settings: for known lytic inducer re-identified / hit in epithelial promoter reporter assay: library screen at 10 uM; for Zta promoter luciferase activity / induction of BZLF1 promoter: AGS cells
[1] = system: CMV promoter driven GFP in Hela cells
[2] = system: recombinant EBV encoding GFP (BX-1) in AKATA-BX1 cells; test: GFP whole virus assay in AKATA-BX1 cells; settings: for GFP signal: AKATA-BX1 cells
EBV-TK = test: immunoblot for EBV-TK expression; format: cell-based, Epstein-Barr virus; settings: Rael cells; immunoblot
Method: To detect expression of the EBV-TK or EBV-ZTA, total cell protein was first extracted by treating cells with lysis buffer (0.05 M Tris, pH 7.6, 0.15 M NaCl, 1% triton-X 100, 2 mM EDTA) containing protease inhibitors for 10 minutes at 4° C. The following reagents were added to 1 mL of lysis buffer: 2 μL leupeptin (5 mg/mL), 1 μL 0.2 M Na3VO4, 1 μL NaF, 1 μL aprotinin (10 mg/ml), 1 μL, pepstatin (2 mM), and 10 μL PMSF (100 mM) for 10 minutes at 4° C. Following centrifugation, the supernatant was collected and stored at −80° C. Protein concentration was determined with the BCA Protein Assay Kit (Pierce, Rockford, Ill.) according to the manufacturer's instructions. A 10 μg aliquot of total cellular protein was fractionated on a 7.5% SDS-polyacrylamide gel. Proteins were transferred to PROTRAN nitrocellulose membrane (Schleicher & Schuell, Keene, N.H.). The membranes were blocked with 5% blotting grade non-fat dry milk (Bio-rad, Hercules, Calif.) in PBS with 0.1% TWEEN-20 (PBS-T) at 4° C. overnight. […] The membranes were washed twice and proteins were detected with ECL Western Blotting Detection reagents (Amersham Pharmacia Biotech). […]

[3] = system: EBV viral DNA copy number; test: real-time PCR for EBV viral DNA copy number (viral replication); format: cell-based, Epstein-Barr virus; settings: for lytic protein expression or viral replication: B cells or gastric epithelial cells (SNU 719)
Method: Genomic DNA from treated cells were extracted with the QIAamp DNA mini kit (Qiagen, CA) according to the manufacturer's instructions. PCRs were set up in a volume of 50 μL with a TaqMan PCR core reagent kit (Perkin-Elmer Corp., Branchburg, N.J.). Fluorescent probes were custom synthesized by Perkin-Elmer Applied Biosystems. PCR primers were synthesized by Gibco BRL (Frederick, Md.). Each reaction contained 5 μL of 10× buffer A (4 mM MgCl2), amplification primers (300 nM), fluorescent probe (25 nM), dATP, dCTP, and dGTP (200 μM each), dUTP (400 uM), 1.25 U of AmpliTaq Gold, and 0.5 U of AmpErase uracil N-glycosylase. Extracted genomic DNA was used for amplification. DNA amplification was carried out in a 96-well reaction plate in a Perkin-Elmer Applied Biosystems 7700 sequence detector. Each sample was analyzed in duplicate, and multiple negative water blanks were included in each analysis. A calibration curve was run in parallel and in duplicate with each analysis, with DNA extracted from the EBV-positive cell line Namalwa as a standard.
The EBV genome was quantified by real-time PCR with the ICycler system (Biorad, Hercules, Calif.). Template DNA was extracted with a mini blood DNA Kit (Qiagen, Valencia, Calif.). […]. A calibration curve was run in parallel and in duplicate with each analysis, using DNA extracted from the diploid EBV-positive cell line Namalwa containing two integrated viral genomes per cell as a standard. Amplification data were collected with an MyiQ single color real-time PCR Detector (Biorad) and analyzed with the MyiQ software developed by Biorad.

BZLF1 protein (ZTA) = test: Western blot / immunoblot for ZTA (BZLF1 protein) in EBV positive cell lines; format: cell-based, Epstein-Barr virus; settings: for BZLF protein expression: SNU719, AKATA, Raji, LCL and Rael cells
Method: To detect expression of the EBV-TK or EBV-ZTA, total cell protein was first extracted by treating cells with lysis buffer (0.05 M Tris, pH 7.6, 0.15 M NaCl, 1% triton-X 100, 2 mM EDTA) containing protease inhibitors for 10 minutes at 4° C. The following reagents were added to 1 mL of lysis buffer: 2 μL leupeptin (5 mg/mL), 1 μL 0.2 M Na3VO4, 1 μL NaF, 1 μL aprotinin (10 mg/ml), 1 μL, pepstatin (2 mM), and 10 μL PMSF (100 mM) for 10 minutes at 4° C. Following centrifugation, the supernatant was collected and stored at −80° C. Protein concentration was determined with the BCA Protein Assay Kit (Pierce, Rockford, Ill.) according to the manufacturer's instructions. A 10 μg aliquot of total cellular protein was fractionated on a 7.5% SDS-polyacrylamide gel. Proteins were transferred to PROTRAN nitrocellulose membrane (Schleicher & Schuell, Keene, N.H.). The membranes were blocked with 5% blotting grade non-fat dry milk (Bio-rad, Hercules, Calif.) in PBS with 0.1% TWEEN-20 (PBS-T) at 4° C. overnight. The membranes were then washed with PBS-T twice followed by incubation with 1/1,000-diluted rabbit anti-TK sera from a rabbit immunized with a synthetic EBV-TK peptide ([…]) or anti-ZTA monoclonal antibody (Argene, North Massapequa, N.Y.) at room temperature for 1 hour. After washing, the membranes were incubated with HRP-conjugated goat anti-rabbit IgG antibodies or HRP-conjugated goat anti-mouse IgG antibodies (Amersham Pharmacia Biotech, Piscataway, N.J.) at a 1/5,000 dilution in PBS-T at room temperature for 1 hour. The membranes were washed twice and proteins were detected with ECL Western Blotting Detection reagents (Amersham Pharmacia Biotech). The membranes were exposed to X-OMAT film (Kodak, Rochester, N.Y.) at room temperature.
For lytic induction studies, cells were seeded at 10^6/ml, and treated with test compounds for 48 hours. Control untreated cells were incubated in parallel.
Cells were washed with PBS twice. Total cellular protein was extracted with lysis buffer. Proteins were electrophoresed in polyacrylamide and then transferred onto a PROTRAN nitrocellulose membrane (Schleicher&Schuell, Keene, N.H.). Blots were probed with primary antibody (Ab) overnight at 4° C. HRP-conjugated secondary Ab was added after washing and detected by an enhanced chemiluminescence system (ECL) (Amersham). The following antibodies were used: anti-ZTA (Argene), anti-f3-actin (Sigma), anti-mouse (Sigma).

EBV(+) Akata cells = test: entry of EBV(+) Akata cells into the lytic cycle; settings: 20 nM, 48 hours
[4] = system: EBV(+) Burkitt's lymphoma (Rael); test: tumor growth, EBV(+) Burkitt's lymphoma (Rael) xenografts; format: in vivo, SCID mice; settings: bortezomib without [131I]FIAU
Method: Therefore, an evaluation of a therapeutic isotope was carried out. As described above, SCID mice engrafted with EBV Burkitt's lymphoma xenografts received either buffer or bortezomib followed the next day by treatment with [^131I]FIAU or no treatment. […] Thus, bortezomib allowed targeting of [^131I]FIAU with therapeutic effect. Other proteasome inhibitors are also likely to be active. Several are in clinical trial.
Biostatistics. Linear regression and curve fitting were undertaken carried using GraphPad Prism software version 5.00 for Windows, GraphPad Software, San Diego Calif. USA, www.graphpad.com.

[5] = system: EBV-TK functional activity in Burkitt's lymphoma cell lines; test: in vitro [14C]FIAU cell uptake after bortezomib; format: cell-based, Epstein-Barr virus
Method: For in vitro [^14C]FIAU uptake studies, cells were seeded at 5×10^5 cells/mL and incubated with 10 nM bortezomib at 37° C. for 6-12 hrs. They were washed and then incubated with 0.04 μCi/mL [^14C]FIAU at 37° C. for 2, 4, 8, 24, 48, 72 hours. Cells were pelleted by centrifugation and washed with unlabeled FIAU. Radioactivity of the isolated cells and pooled medium with washes were then counted separately by scintillation counting with a Beckman Coulter LS5000TA scintillation counter (Fullerton, Calif.). Total cellular protein was extracted by incubating in lysis buffer (0.05 M Tris, pH 7.6, 0.15 M NaCl, 1% triton-X 100, 2 mM EDTA) and cell debris were removed by centrifugation. The supernatant was collected and the protein concentration was determined with the BCA protein assay kit (Pierce, Rockford, Ill.) according to the manufacturer's instructions. Cell uptake was expressed as the accumulation ratio, that is, the counts per minute per gram (cpm/g) of cells divided by the cpm/g (mL) of medium.

[6] = administered to patients for imaging; cited from earlier work

O=c1[nH]cc(F)c(=O)[nH]1 [5-FU]
known lytic inducer re-identified / hit in epithelial promoter reporter assay (Zta promoter): verified

Nc1ncn([C@H]2C[C@H](O)[C@@H](CO)O2)c(=O)n1 [5′-azadeoxycytidine, 5-Aza-2′-deoxycytidine]
Zta promoter luciferase activity (Zta promoter): did not activate; also recorded: not activated | GFP signal in control cell line [1]: not activated | GFP signal [2]: induced

CC(C)C[C@H](NC(=O)[C@H](Cc1ccccc1)NC(=O)c1cnccn1)B(O)O [Bortezomib]
EBV-TK expression (EBV-TK): induced | increase of EBV viral DNA copy number ([3]; Rael cells, 20 nM for 8 hours, DNA collected after 48 hours): 20 fold | viral copy number ([3]; real time DNA PCR, Rael): increased | Zta promoter luciferase activity (Zta promoter): increases in a bortezomib dose-dependent manner | induction of BZLF1 promoter (Zta promoter; 10 nM): induced | known lytic inducer re-identified / hit in epithelial promoter reporter assay (Zta promoter): most prominent hit | EC50 for inducing lytic infection (Zta promoter; luciferase assay): nanomolar scale | ZTA expression (BZLF1 protein (ZTA); Rael cells): induced | cells entered the lytic cycle (EBV(+) Akata cells): 67% | GFP signal [2]: dose dependent | GFP signal ([2]; 10 nM): induced GFP signal | EC50 for inducing lytic infection ([2]; GFP assay): nanomolar scale | known lytic inducer re-identified / hit in lymphoma cell line/whole virus assay ([2]; library screen at 10 uM): most prominent hit | tumor growth [4]: slowed tumor growth

[Cl][Co][Cl] [Cobalt chloride]
known lytic inducer re-identified / hit in epithelial promoter reporter assay (Zta promoter): missed | known lytic inducer re-identified / hit in lymphoma cell line/whole virus assay ([2]; library screen at 10 uM): missed

COc1cccc2c1C(=O)c1c(O)c3c(c(O)c1C2=O)C[C@@](O)(C(=O)CO)C[C@@H]3O[C@H]1C[C@H](N)[C@H](O)[C@H](C)O1 [Doxorubicin]
known lytic inducer re-identified / hit in epithelial promoter reporter assay (Zta promoter): verified | known lytic inducer re-identified / hit in lymphoma cell line/whole virus assay ([2]; library screen at 10 uM): verified

CC(C(=O)O)c1ccc(N2Cc3ccccc3C2=O)cc1 (stereo not shown) [Indoprofen]
EBV viral replication ([3]; SNU719 cells): not viral replication; also recorded: did not induce | induction of BZLF1 promoter (Zta promoter; 10 μM): can induce | ZTA expression (BZLF1 protein (ZTA); SNU719 cells, high dose): induced

Cc1oncc1C(=O)Nc1ccc(C(F)(F)F)cc1 [Leflunomide, N-(4′-trifluoromethylphenyl)-5-methylisoxazole-4-carboxamide]
lytic protein expression or viral replication [3]: don't induce | BZLF protein expression (BZLF1 protein (ZTA)): did not induce

CN(Cc1cnc2nc(N)nc(N)c2n1)c1ccc(C(=O)N[C@@H](CCC(=O)O)C(=O)O)cc1 [Methotrexate]
known lytic inducer re-identified / hit in epithelial promoter reporter assay (Zta promoter): verified

CCCCCCCCCCCCCC(=O)O[C@@H]1[C@@H](C)[C@@]2(O)[C@@H](C=C(CO)C[C@]3(O)C(=O)C(C)=C[C@@H]23)[C@@H]2C(C)(C)[C@]12OC(C)=O [PMA]
known lytic inducer re-identified / hit in epithelial promoter reporter assay (Zta promoter): verified | known lytic inducer re-identified / hit in lymphoma cell line/whole virus assay ([2]; library screen at 10 uM): verified

CC(C)[C@H](CO)Nc1nc(Nc2cccc(Cl)c2)c2ncn(C(C)C)c2n1 [Purvalanol A]
inhibition of EBV immediate early gene ZTA expression (BZLF1 protein (ZTA); AKATA-BX1, anti-IgG induction): inhibited | inhibition of GFP signal after lytic induction ([2]; AKATA-BX1 cells induced with anti-IgG): specifically inhibited

CCCC(=O)[O-].[Na+] [Sodium butyrate]
known lytic inducer re-identified / hit in epithelial promoter reporter assay (Zta promoter): missed | known lytic inducer re-identified / hit in lymphoma cell line/whole virus assay ([2]; library screen at 10 uM): missed

CCCCCCCCCCCCCC(=O)O[C@@H]1[C@@H](C)[C@@]2(O)[C@@H](C=C(CO)C[C@]3(O)C(=O)C(C)=C[C@@H]23)[C@@H]2C(C)(C)[C@]12OC(C)=O [TPA, phorbol 12-tetradecanoate 13-acetate]
Zta promoter luciferase activity (Zta promoter): activated | GFP signal in control cell line [1]: not activated

CC(=O)O[C@H]1C(=O)[C@@]2(C)[C@H]([C@H](OC(=O)c3ccccc3)[C@]3(O)C[C@H](OC(=O)[C@H](O)[C@@H](NC(=O)c4ccccc4)c4ccccc4)C(C)=C1C3(C)C)[C@]1(OC(C)=O)CO[C@@H]1C[C@@H]2O [Taxol]
known lytic inducer re-identified / hit in epithelial promoter reporter assay (Zta promoter): verified

COc1ccc(C=CC(=O)Nc2ccccc2C(=O)O)cc1OC [Tranilast, N-(3,4-dimethoxycinnamoyl)anthranilic acid]
lytic protein expression or viral replication [3]: don't induce | BZLF protein expression (BZLF1 protein (ZTA)): did not induce

O=c1[nH][14c](=O)n([C@@H]2O[C@H](CO)[C@@H](O)[C@@H]2F)cc1I [[^14C]FIAU, [2-^14C]2′-Fluoro-2′-deoxy-β-D-5-iodouracil-arabinofuranoside]
accumulation of [14C]FIAU ([5]; EBV(+) Akata and EBV(+) Rael cells following treatment with bortezomib): increased | accumulation of [14C]FIAU ([5]; EBV(−) Akata cells following treatment with bortezomib): not

O=c1[nH]c(=O)n([C@@H]2O[C@H](CO)[C@@H](O)[C@@H]2F)cc1[125I] [[^124I]FIAU, 2′-fluoro-2′deoxy-1-beta-D-arabinofuranosyl-5-iodo-uracil]
effect on hepatic function [6]: without any adverse effect on hepatic function

CCCC(=O)O [butyrate]
Zta promoter luciferase activity (Zta promoter): activated

N.N.[Cl][Pt][Cl] [cis-platinum]
known lytic inducer re-identified / hit in epithelial promoter reporter assay (Zta promoter): verified

CC[C@H](C)C(=O)O[C@H]1C[C@@H](C)C=C2C=C[C@H](C)[C@H](CC[C@@H]3C[C@@H](O)CC(=O)O3)[C@H]21 [lovastatin]
suppression hits in GFP whole virus assay ([2]; library screen at 10 uM, picked after day 10): suppression hits

CCCC(CCC)C(=O)O [valproate]
Zta promoter luciferase activity (Zta promoter): activated | Zta promoter luciferase activity (Zta promoter; listed as valproic acid): increased expression of luciferase in a dose-dependent manner

Arginine butyrate
known lytic inducer re-identified / hit in epithelial promoter reporter assay (Zta promoter): missed | known lytic inducer re-identified / hit in lymphoma cell line/whole virus assay ([2]; library screen at 10 uM): missed
